Source: the supplement of paper PMC10307832

Columns and labels:
Experiment in all cases: relative viability (nuclei count vs DMSO), 5 days (fraction); higher = more cells survive
IDH-C35 + Pemetrexed = compound: Cc1ccccc1C(C(=O)NC1CCCCC1)N(C(=O)Cn1ccnc1C)c1cccc(F)c1 [IDH-C35] + Nc1nc2[nH]cc(CCc3ccc(C(=O)N[C@@H](CCC(=O)O)C(=O)O)cc3)c2c(=O)[nH]1 [Pemetrexed] (partner 0.2 µM)
Method in brief: (§1)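 Relative viability equals treated-well nuclei counts divided by vehicle-well nuclei counts. Counts came from 4× images of lung cancer cell lines grown in 1536-well plates for 5 days after pin-tool dosing on the day after seeding. Dosing used one drug alone or a fixed anchor-drug dose plus five library-drug doses (not always all listed) in √10 steps, and values are medians of duplicate plates.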

IDH-C35 + Olaparib = compound: Cc1ccccc1C(C(=O)NC1CCCCC1)N(C(=O)Cn1ccnc1C)c1cccc(F)c1 [IDH-C35] + O=C(c1cc(Cc2n[nH]c(=O)c3ccccc23)ccc1F)N1CCN(C(=O)C2CC2)CC1 [Olaparib] (partner 8 µM)
Method in brief: as §1

[1] = compound: CC1=C(C(=NN1)C)CC2=C(C3=C(S2)N(C(=O)N(C3=O)C)CC(C)C)C(=O)N4C[C@@H](CO4)O + C[C@]1(O)C[C@@H](c2nc(-c3ccc4ccc(-c5ccccc5)nc4c3)c3c(N)nccn32)C1 [Linsitinib] (partner 1 µM)
Method in brief: as §1

IDH-C35 + Crizotinib = compound: Cc1ccccc1C(C(=O)NC1CCCCC1)N(C(=O)Cn1ccnc1C)c1cccc(F)c1 [IDH-C35] + C[C@@H](Oc1cc(-c2cnn(C3CCNCC3)c2)cnc1N)c1c(Cl)ccc(F)c1Cl [Crizotinib] (partner 1 µM)
Method in brief: as §1

| Cell Line | relative viability (IDH-C35 + Pemetrexed; first compound 0.08 µM) | relative viability (IDH-C35 + Pemetrexed; first compound 0.253 µM) | relative viability (IDH-C35 + Pemetrexed; first compound 0.8 µM) | relative viability (IDH-C35 + Pemetrexed; first compound 2.53 µM) | relative viability (IDH-C35 + Pemetrexed; first compound 8 µM) | relative viability (IDH-C35 + Olaparib; first compound 0.08 µM) | relative viability (IDH-C35 + Olaparib; first compound 0.253 µM) | relative viability (IDH-C35 + Olaparib; first compound 0.8 µM) | relative viability (IDH-C35 + Olaparib; first compound 2.53 µM) | relative viability (IDH-C35 + Olaparib; first compound 8 µM) | relative viability ([1]; first compound 0.0025 µM) | relative viability ([1]; first compound 0.007906 µM) | relative viability ([1]; first compound 0.025 µM) | relative viability ([1]; first compound 0.07906 µM) | relative viability ([1]; first compound 0.25 µM) | relative viability (IDH-C35 + Crizotinib; first compound 0.08 µM) | relative viability (IDH-C35 + Crizotinib; first compound 0.253 µM) | relative viability (IDH-C35 + Crizotinib; first compound 0.8 µM) | relative viability (IDH-C35 + Crizotinib; first compound 2.53 µM) | relative viability (IDH-C35 + Crizotinib; first compound 8 µM) |
| --- | --- | --- | --- | --- | --- | --- | --- | --- | --- | --- | --- | --- | --- | --- | --- | --- | --- | --- | --- | --- |
| NCI-H1975 | 0.284 | 0.284 | 0.281 | 0.288 | 0.32 | 0.809 | 0.805 | 0.815 | 0.8 | 0.735 | 0.956 | 1.04 | 1 | 0.949 | 1.08 | 1 | 0.967 | 0.93 | 0.924 | 0.876 |
| CAL-12T | 1.23 | 1.14 | 1.37 | 1.15 | 1.12 | 0.761 | 0.73 | 0.629 | 0.747 | 0.701 | 0.899 | 0.853 | 0.845 | 0.807 | 1.11 | 0.556 | 0.792 | 0.682 | 0.603 | 0.603 |
| HCC-44 | 0.6 | 0.639 | 0.658 | 0.633 | 0.667 | 0.987 | 0.927 | 0.988 | 0.964 | 0.923 | 0.855 | 0.713 | 0.629 | 0.684 | 0.74 | 0.848 | 0.794 | 0.719 | 0.801 | 0.733 |
| EKVX | 0.443 | 0.332 | 0.395 | 0.369 | 0.42 | 0.859 | 0.892 | 0.836 | 0.918 | 0.802 | 0.978 | 1.05 | 0.939 | 1.05 | 1.04 | 0.953 | 0.74 | 0.688 | 0.935 | 1.08 |
| NCI-H1651 | 0.53 | 0.615 | 0.571 | 0.607 | 0.641 | 0.173 | 0.179 | 0.181 | 0.166 | 0.188 | 1.03 | 1.26 | 0.944 | 0.908 | 1.06 | 0.848 | 0.874 | 0.874 | 0.919 | 0.925 |
| NCI-H1944 | 0.591 | 0.67 | 0.562 | 0.612 | 0.568 | 0.402 | 0.429 | 0.451 | 0.391 | 0.407 | 1.13 | 1.1 | 1.27 | 1.15 | 1.07 | 1.12 | 1.18 | 0.979 | 1.04 | 1.22 |
| NCI-H1703 |  |  |  |  |  | 0.293 | 0.47 | 0.441 | 0.383 | 0.434 | 0.691 | 0.253 | 0.638 | 0.448 | 0.804 | 0.582 | 0.875 | 1.09 | 0.636 | 0.823 |
| Calu-6 |  |  |  |  |  | 0.57 | 0.563 | 0.609 | 0.558 | 0.571 | 0.974 | 0.933 | 0.877 | 0.907 | 0.952 | 0.765 | 0.745 | 0.804 | 0.833 | 0.742 |
